Laboratory results taken from the NIST ThermoML archive (doi:10.1016/j.fluid.2018.05.004).

Conditions: Crystal, Transpiration method

[CH]1C=CC=C1.[CH]1C=CC=C1.[Fe] [ferrocene]
Conditions	vapor or sublimation pressure [kPa]
361.2 K	0.172
363.2 K	0.198
366.5 K	0.244
368.2 K	0.263
371.7 K	0.332
374.4 K	0.398
378.3 K	0.494
385.7 K	0.789
388.6 K	0.907
392.1 K	1.13
394 K	1.23
401.8 K	1.881
410.1 K	2.869
417.3 K	4.29
419.4 K	4.338
429.4 K	7.204
430.7 K	7.571
434.6 K	9.559
435.2 K	9.195
